Assay results reported in the NIST ThermoML archive (doi:10.1016/j.fluid.2016.02.011).

Assay: refractive index (Na D-line) (dimensionless); xn = mol fraction of the nth substance listed
Conditions: 100 kPa, Liquid, minimum deviations angle

Brc1ccccc1 [bromobenzene] + CCCCCC[n+]1ccn(C)c1.O=S(=O)([N-]S(=O)(=O)C(F)(F)F)C(F)(F)F
Conditions	refractive index
282.96 K, x2 = 0.126	1.5213
282.97 K, x2 = 0.014	1.5558
282.97 K, x2 = 0.099	1.5287
283 K, x2 = 0	1.5612
283 K, x2 = 0.012	1.5566
283.05 K, x2 = 0.203	1.5043
284.39 K, x2 = 0.098	1.5279
284.4 K, x2 = 0	1.5605
284.53 K, x2 = 0.016	1.5545
284.53 K, x2 = 0.094	1.5291
284.67 K, x2 = 0.012	1.5558
284.89 K, x2 = 0.126	1.5204
285.06 K, x2 = 0.203	1.5035
285.53 K, x2 = 0.098	1.5273
285.73 K, x2 = 0.017	1.5534
285.73 K, x2 = 0.091	1.5294
285.75 K, x2 = 0	1.5598
286.57 K, x2 = 0.012	1.5548
286.96 K, x2 = 0	1.5591
286.98 K, x2 = 0.126	1.5195
287.01 K, x2 = 0.203	1.5027
287.53 K, x2 = 0.019	1.5516
287.53 K, x2 = 0.086	1.53
287.59 K, x2 = 0.098	1.5264
287.98 K, x2 = 0	1.5585
288.27 K, x2 = 0.012	1.5539
288.42 K, x2 = 0.021	1.5506
288.42 K, x2 = 0.083	1.5304
288.67 K, x2 = 0.085	1.5295
288.99 K, x2 = 0	1.558
289.12 K, x2 = 0.126	1.5186
289.13 K, x2 = 0.022	1.5497
289.13 K, x2 = 0.08	1.5307
289.18 K, x2 = 0.203	1.5018
289.79 K, x2 = 0.085	1.529
289.81 K, x2 = 0.098	1.5254
289.82 K, x2 = 0.024	1.5487
289.82 K, x2 = 0.077	1.5313
290.11 K, x2 = 0	1.5574
290.23 K, x2 = 0.012	1.5529
290.33 K, x2 = 0.026	1.5478
290.33 K, x2 = 0.074	1.5318
290.81 K, x2 = 0.085	1.5286
290.82 K, x2 = 0.027	1.547
290.82 K, x2 = 0.072	1.5324
290.87 K, x2 = 0.026	1.5473
291.09 K, x2 = 0.203	1.501
291.14 K, x2 = 0.126	1.5177
291.16 K, x2 = 0.029	1.5462
291.16 K, x2 = 0.069	1.533
291.22 K, x2 = 0	1.5568
291.34 K, x2 = 0.012	1.5524
291.44 K, x2 = 0.03	1.5456
291.44 K, x2 = 0.067	1.5336
291.49 K, x2 = 0.075	1.5311
291.54 K, x2 = 0.031	1.5453
291.54 K, x2 = 0.066	1.5338
291.64 K, x2 = 0.031	1.5451
291.64 K, x2 = 0.065	1.5341
291.71 K, x2 = 0.098	1.5245
291.74 K, x2 = 0.032	1.5448
291.74 K, x2 = 0.064	1.5343
291.83 K, x2 = 0.033	1.5445
291.83 K, x2 = 0.063	1.5346
291.91 K, x2 = 0.033	1.5442
291.91 K, x2 = 0.062	1.5349
291.98 K, x2 = 0.034	1.5439
291.98 K, x2 = 0.061	1.5351
292.03 K, x2 = 0.026	1.5467
292.04 K, x2 = 0.035	1.5436
292.04 K, x2 = 0.06	1.5354
292.08 K, x2 = 0.036	1.5433
292.08 K, x2 = 0.059	1.5356
292.14 K, x2 = 0.085	1.5279
292.15 K, x2 = 0.037	1.5428
292.15 K, x2 = 0.058	1.536
292.21 K, x2 = 0.038	1.5424
292.21 K, x2 = 0.056	1.5365
292.21 K, x2 = 0.075	1.5307
292.21 K, x2 = 0.126	1.5172
292.22 K, x2 = 0.203	1.5005
292.24 K, x2 = 0.039	1.5421
292.24 K, x2 = 0.055	1.5368
292.25 K, x2 = 0.039	1.5419
292.25 K, x2 = 0.055	1.5369
292.26 K, x2 = 0.04	1.5416
292.26 K, x2 = 0.054	1.5371
292.27 K, x2 = 0.041	1.5414
292.27 K, x2 = 0.053	1.5373
292.29 K, x2 = 0.042	1.541
292.29 K, x2 = 0.052	1.5378
292.3 K, x2 = 0.012	1.5518
292.3 K, x2 = 0.043	1.5407
292.3 K, x2 = 0.051	1.538
292.32 K, x2 = 0	1.5563
293.01 K, x2 = 0.085	1.5276
293.1 K, x2 = 0.026	1.5461
293.22 K, x2 = 0.126	1.5167
293.22 K, x2 = 0.203	1.5001
293.32 K, x2 = 0	1.5557
293.35 K, x2 = 0.041	1.5407
293.35 K, x2 = 0.06	1.5348
293.39 K, x2 = 0.012	1.5513
293.5 K, x2 = 0.075	1.5301
293.74 K, x2 = 0.098	1.5236
293.93 K, x2 = 0.085	1.5271
294.22 K, x2 = 0.026	1.5456
294.45 K, x2 = 0.041	1.5401
294.49 K, x2 = 0.06	1.5343
294.54 K, x2 = 0.075	1.5296
295.1 K, x2 = 0.085	1.5266
295.1 K, x2 = 0.098	1.523
295.32 K, x2 = 0.026	1.545
295.66 K, x2 = 0.06	1.5337
295.82 K, x2 = 0.041	1.5394
295.84 K, x2 = 0.075	1.529
296.86 K, x2 = 0.06	1.5331
297.11 K, x2 = 0.041	1.5388
297.16 K, x2 = 0.075	1.5284
297.94 K, x2 = 0.06	1.5325
298.49 K, x2 = 0.041	1.5381
298.64 K, x2 = 0.026	1.5433
298.7 K, x2 = 0.075	1.5277
299.03 K, x2 = 0.06	1.532
299.63 K, x2 = 0.041	1.5375
299.98 K, x2 = 0.06	1.5315
300.84 K, x2 = 0.041	1.5369
